14 compounds from patent publication US11912650B2, “Bakuchiol derivatives, pharmaceutically acceptable salts thereof, and preparation method and use of the same” (priority 2020, dated 2024) can be followed below.

The structures appear in SMILES notation. Values after ≈ are worked out from the molar mass of the structure shown. Read-outs that look alike come from different tables or passages of the source.

Test [1] deals with MRSA NCTC10442. Kind of test: Antibacterial activity assay (broth dilution MIC). To be noted: Staphylococcus aureus, 37° C., 24 h, compounds 38, 44-45, 58-61, 63-64 with 0.05% Tween 80. Format: cell-based, methicillin-resistant Staphylococcus aureus. The protocol:
(§1) Antibacterial activity assay. The antibacterial activities of all the compounds were determined according to a broth dilution method specified in Clinical and Laboratory Standards Institute (CLSI) guidelines. Bacterial cells were inoculated on a Mueller-Hinton agar (MHA) plate for overnight culture, and the concentration of the bacterial cells was adjusted to about 1×10^6 colony-forming units (CFU)/mL with phosphate buffered saline (PBS). First, a 1000 μg/mL stock solution (a final concentration of dimethyl sulfoxide (DMSO) was ≤2%) was prepared by dissolving a sample in DMSO/H2O. Then, the stock solution was diluted with Mueller-Hinton Broth (MHB) to an initial concentration of 100 μg/mL, and the sample solution (100 μL) was subjected to two-fold gradient dilution with MHB in a 96-well plate, to obtain 100 μg/mL to 0.78 μg/mL serial dilutions. Then, a bacterial suspension (100 μL) was added to each well of the 96-well plate and mixed with the test sample solution (100 μL). Among them, test systems for compounds 38, 44-45, 58-61 and 63-64 contained 0.05% of Tween 80. Finally, the 96-well plate was incubated at 37° C. for 24 hours. Absorbances at 600 nm at 0 and 24 h were measured. An minimum inhibitory concentration (MIC) value was defined as the lowest concentration where no visible bacterial growth occurred. All experiments were carried out in at least two duplicates, and biological repeatability could be achieved.
Background: In broth dilution the organism is exposed to a series of concentrations in liquid medium.

Test [2] deals with MRSA N315. Kind of test: Antibacterial activity assay (broth dilution MIC). In kind it is cell-based, methicillin-resistant Staphylococcus aureus. To be noted: Staphylococcus aureus, 37° C., 24 h, compounds 38, 44-45, 58-61, 63-64 with 0.05% Tween 80. The protocol:
as §1

Test [3] concerns Gram-positive bacteria. Nature of the test: Antibacterial activity against Gram-positive bacteria (MIC summary). In kind it is cell-based. To be noted: 24 h, read-out: minimum inhibitory concentration (MIC) against Gram-positive bacteria. As for the experimental part: as §1
The test system of test [4] is E. coli ATCC25922. Nature of the test: Antibacterial activity assay (broth dilution MIC). The settings on record: Escherichia coli, 37° C., 24 h, compounds 38, 44-45, 58-61, 63-64 with 0.05% Tween 80. In kind it is cell-based. The protocol: as §1
In test [5] the test system is S. aureus ATCC29213. Nature of the test: Antibacterial activity assay (broth dilution MIC). In kind it is cell-based. To be noted: Staphylococcus aureus, 37° C., 24 h, compounds 38, 44-45, 58-61, 63-64 with 0.05% Tween 80. As for the experimental part: as §1

On to `C=C[C@@](C)(/C=C/c1ccc(OCCCCN(C)C)cc1)CCC=C(C)C` [Compound 5], for which the MIC in test [1] is 3.12 mg/L (≈ 8.79 µM); in test [2] it was 1.56 mg/L (≈ 4.39 µM); in test [3] it was 0.39 to 3.12 mg/L (≈ 1.1 to 8.79 µM); in test [4], over 50 mg/L; in test [5], 1.56 mg/L (≈ 4.39 µM).
As to `C=C[C@@](C)(/C=C/c1ccc(OCCCCN(CC)CC)cc1)CCC=C(C)C` [Compound 6], the MIC in test [1] is 3.12 mg/L (≈ 8.15 µM); in test [2], 3.12 mg/L (≈ 8.15 µM); in test [3] it was 0.39 to 3.12 mg/L (≈ 1.02 to 8.15 µM); in test [4], over 100 mg/L; in test [5] it was 3.12 mg/L (≈ 8.15 µM).
On to `C=C[C@@](C)(/C=C/c1ccc(OCCCN(C)C)cc1)CCC=C(C)C` [Compound 8], for which the MIC in test [1] was 6.25 mg/L (≈ 18.3 µM); in test [2], 6.25 mg/L (≈ 18.3 µM); in test [4] it was over 100 mg/L; in test [5] it was 6.25 mg/L (≈ 18.3 µM).
Turning to `C=C[C@@](C)(/C=C/c1ccc(OCCCN(CC)CC)cc1)CCC=C(C)C` [Compound 9], the MIC was 3.12 mg/L (≈ 8.46 µM) in test [1]; 3.12 mg/L (≈ 8.46 µM) in test [2]; 0.39 to 3.12 mg/L (≈ 1.06 to 8.46 µM) in test [3]; over 100 mg/L in test [4]; 3.12 mg/L (≈ 8.46 µM) in test [5].
For the compound `C=C[C@@](C)(/C=C/c1ccc(OCCCCCCCCN(CC)CC)cc1)CCC=C(C)C` [Compound 11], the MIC in test [1] is 1.56 mg/L (≈ 3.55 µM); in test [2], 1.56 mg/L (≈ 3.55 µM); in test [3] (summary of tables 1 and 2) it was 0.39 to 3.12 mg/L (≈ 0.887 to 7.11 µM); in test [4] it was over 100 mg/L; in test [5], 3.12 mg/L (≈ 7.11 µM).
As to `C=C[C@@](C)(/C=C/c1ccc(OCCCCCCCCCCN(CC)CC)cc1)CCC=C(C)C` [Compound 12], the MIC in test [1] was 3.12 mg/L (≈ 6.68 µM); in test [2], 3.12 mg/L (≈ 6.68 µM); in test [3] (summary of tables 1 and 2) it was 0.39 to 3.12 mg/L (≈ 0.834 to 6.68 µM); in test [4], over 100 mg/L; in test [5] it was 12.5 mg/L (≈ 26.7 µM).
Take `C=C[C@@](C)(/C=C/c1ccc(OCCCCN)cc1)CCC=C(C)C` [Compound 13]: the MIC was 1.56 mg/L (≈ 4.76 µM) in test [1]; 0.78 mg/L (≈ 2.38 µM) in test [2]; 0.39 to 3.12 mg/L (≈ 1.19 to 9.54 µM) in test [3] (summary of tables 1 and 2); 12.5 mg/L (≈ 38.2 µM) in test [4]; 1.56 mg/L (≈ 4.76 µM) in test [5].
For `C=C[C@@](C)(/C=C/c1ccc(OCCCCNCC)cc1)CCC=C(C)C` [Compound 14], the MIC is 1.56 mg/L (≈ 4.39 µM) in test [1]; 0.78 mg/L (≈ 2.19 µM) in test [2]; 0.39 to 3.12 mg/L (≈ 1.1 to 8.79 µM) in test [3] (summary of tables 1 and 2); 12.5 mg/L (≈ 35.2 µM) in test [4]; 1.56 mg/L (≈ 4.39 µM) in test [5].
Regarding `C=C[C@@](C)(/C=C/c1ccc(OCCCCNCCCC)cc1)CCC=C(C)C` [Compound 15], the MIC in test [1] is 1.56 mg/L (≈ 4.07 µM); in test [2], 1.56 mg/L (≈ 4.07 µM); in test [3] (summary of tables 1 and 2), 0.39 to 3.12 mg/L (≈ 1.02 to 8.15 µM); in test [4] it was 12.5 mg/L (≈ 32.6 µM); in test [5], 1.56 mg/L (≈ 4.07 µM).
`C=C[C@@](C)(/C=C/c1ccc(OCCCCNCCCCCC)cc1)CCC=C(C)C` [Compound 16]: the MIC in test [1] was 1.56 mg/L (≈ 3.79 µM); in test [2], 0.78 mg/L (≈ 1.89 µM); in test [3] (summary of tables 1 and 2), 0.39 to 3.12 mg/L (≈ 0.947 to 7.59 µM); in test [4] it was 100 mg/L (≈ 243 µM); in test [5], 1.56 mg/L (≈ 3.79 µM).
In the case of `C=C[C@@](C)(/C=C/c1ccc(OCCCCNCCCCCCCC)cc1)CCC=C(C)C` [Compound 17], the MIC in test [1] is 3.12 mg/L (≈ 7.11 µM); in test [2], 1.56 mg/L (≈ 3.55 µM); in test [4] it was over 100 mg/L; in test [5], 6.25 mg/L (≈ 14.2 µM).
With `C=C[C@@](C)(/C=C/c1ccc(OCCCCNCCCCCCCCCC)cc1)CCC=C(C)C` [Compound 18], the MIC in test [1] is 50 mg/L (≈ 107 µM); in test [2] it was 12.5 mg/L (≈ 26.7 µM); in test [4], over 100 mg/L; in test [5], 50 mg/L (≈ 107 µM).
Consider `C=C[C@@](C)(/C=C/c1ccc(OCCCCN2CCCC2)cc1)CCC=C(C)C` [Compound 20], for which the MIC in test [1] is 1.56 mg/L (≈ 4.09 µM); in test [2] it was 1.56 mg/L (≈ 4.09 µM); in test [4] it was over 100 mg/L; in test [5], 1.56 mg/L (≈ 4.09 µM).
Regarding `C=C[C@@](C)(/C=C/c1ccc(OCCCCN2CCN(C)CC2)cc1)CCC=C(C)C` [Compound 21], the MIC in test [1] was 3.12 mg/L (≈ 7.61 µM); in test [2] it was 3.12 mg/L (≈ 7.61 µM); in test [4] it was over 100 mg/L; in test [5] it was 1.56 mg/L (≈ 3.8 µM).
